Results: patent US20260184663A1, “INDENE COMPOUNDS, PHARMACEUTICAL COMPOSITIONS THEREOF, AND THEIR THERAPEUTIC APPLICATIONS” (NucMito Pharmaceuticals co. Ltd., priority 2022, published 2026)
Like-named read-outs stand apart in the source and are kept apart here.

Columns and labels:
Type in all cases: cell-based
[1] = tested on: MDA-MB-231 (breast cancer); assay: Antiproliferative activity (CCK-8 cell viability), MDA-MB-231; settings: Homo sapiens, 72 h; for inhibition at 3.3 µM: Compound concentration: 3.3 μM; for inhibition at 10 µM: Compound concentration: 10 μM; for inhibition at 30 µM: Compound concentration: 30 μM
Outline: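 MDA-MB-231 breast cancer cells, grown in DMEM with 10% FBS, were plated in 96-well plates at 2,000-5,000 cells/well. Once attached, they were exposed to compound and incubated at 37° C. for 72 h. Viability was then measured with CCK-8 (10 μL per well, 4 h at 37° C.) by absorbance at 450 nm, relative to DMSO vehicle wells.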

HepG2 (liver cancer) = assay: Antiproliferative activity (CCK-8 cell viability), HepG2; settings: Homo sapiens, 72 h, read-out: Antiproliferative activity in cancerous cells, HepG2 (inhibition of cell growth); for inhibition at 3.3 µM: Compound concentration: 3.3 μM; for inhibition at 10 µM: Compound concentration: 10 μM; for inhibition at 30 µM: Compound concentration: 30 μM
Outline: (§1)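 Cells grown in DMEM (HepG2, SW480), MEM (HeLa) or F-12K (A549), each with 10% FBS, then exposed to compound at 3.3, 10 or 30 μM for 72 h at 37 °C. CCK-8 absorbance at 450 nm; viability expressed as percent of DMSO-treated cells, graded as growth inhibition bands.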

SW480 (colon cancer) = assay: Antiproliferative activity (CCK-8 cell viability), SW480; settings: Homo sapiens, 72 h, read-out: Antiproliferative activity in cancerous cells, SW480 (inhibition of cell growth); for inhibition at 3.3 µM: Compound concentration: 3.3 μM; for inhibition at 10 µM: Compound concentration: 10 μM; for inhibition at 30 µM: Compound concentration: 30 μM
Outline: as §1

[2] = tested on: B16F10 (malignant melanoma); assay: Antiproliferative activity (CCK-8 cell viability), B16F10; settings: Mus musculus, 72 h, read-out: Antiproliferative activity in cancerous cells, B16F10 (inhibition of cell growth); for inhibition at 3.3 µM: B16-F10, Compound concentration: 3.3 μM; for inhibition at 10 µM: B16-F10, Compound concentration: 10 μM; for inhibition at 30 µM: B16-F10, Compound concentration: 30 μM
Outline: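 B16F10 melanoma cells grown in DMEM with 10% FBS were plated in 96-well plates at 2,000-5,000 cells/well. After attachment they were exposed to compound in medium for 72 h at 37° C. CCK-8 solution (10 μL) was then added, and after 4 h at 37° C absorbance was read at 450 nm.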

[3] = tested on: A431 (epidermoid carcinoma); assay: Antiproliferative activity (CCK-8 cell viability), A431; settings: Homo sapiens, 72 h, read-out: Antiproliferative activity in cancerous cells, A431 (inhibition of cell growth); for inhibition at 3.3 µM: A-431, Compound concentration: 3.3 μM; for inhibition at 10 µM: A-431, Compound concentration: 10 μM; for inhibition at 30 µM: A-431, Compound concentration: 30 μM
Outline: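 A431 epidermoid carcinoma cells grown in DMEM with 10% FBS were plated at 2,000-5,000 cells/well in 96-well plates. After attachment they were exposed to compound at 3.3 μM, 10 μM, or 30 μM for 72 h at 37° C. Viability was then assessed by CCK-8 against DMSO vehicle-treated wells.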

[4] = tested on: A549 (lung adenocarcinoma); assay: Antiproliferative activity (CCK-8 cell viability), A549; settings: Homo sapiens, 72 h, read-out: Antiproliferative activity in cancerous cells, A549 (inhibition of cell growth); for inhibition at 3.3 µM: Compound concentration: 3.3 μM; for inhibition at 10 µM: Compound concentration: 10 μM; for inhibition at 30 µM: Compound concentration: 30 μM
Outline: as §1

HeLa (cervical cancer) = assay: Antiproliferative activity (CCK-8 cell viability), HeLa; settings: Homo sapiens, 72 h, read-out: Antiproliferative activity in cancerous cells, HELA (inhibition of cell growth); for inhibition at 3.3 µM: Compound concentration: 3.3 μM; for inhibition at 10 µM: Compound concentration: 10 μM; for inhibition at 30 µM: Compound concentration: 30 μM
Outline: as §1

[5] = read-out: Antiproliferative activity in cancerous cells, MDA-MB-231 (inhibition of cell growth)

`CC1=C(CC(=O)O)c2cc(F)ccc2/C1=C\c1ccc(COc2ccc(F)cc2)cc1Br` [B74, (Z)-2-(1-(2-Bromo-4-((4-fluorophenoxy)methyl)benzylidene)-5-fluoro-2-methyl-1H-inden-3-yl)acetic acid] gave an inhibition at 3.3 µM [1, 5] of under 30%, an inhibition at 10 µM [1, 5] of 30 to 50% and an inhibition at 3.3 µM (HepG2 (liver cancer)) of at least 50%. It also gave an inhibition at 10 µM (HepG2 (liver cancer)) of at least 50%, an inhibition at 3.3 µM (SW480 (colon cancer)) of under 30% and an inhibition at 10 µM (SW480 (colon cancer)) of under 30%. The inhibition at 3.3 µM [2] was 30 to 50%, the inhibition at 10 µM [2] was at least 50% and the inhibition at 3.3 µM [3] was under 30%. The inhibition at 10 µM [3] was 30 to 50%, the inhibition at 3.3 µM [4] was 30 to 50% and the inhibition at 10 µM [4] was 30 to 50%. For the same compound, the inhibition at 3.3 µM (HeLa (cervical cancer)) was under 30% and the inhibition at 10 µM (HeLa (cervical cancer)) was at least 50%.

Compound `CC1=C(CC(=O)O)c2cc(F)ccc2/C1=C\c1cccc(OC2CCC(F)(F)CC2)c1` [C206, (Z)-2-(1-(3-((4,4-Difluorocyclohexyl)oxy)benzylidene)-5-fluoro-2-methyl-1H-inden-3-yl)acetic acid] has an inhibition at 3.3 µM [1, 5] of at least 50%, an inhibition at 10 µM [1, 5] of at least 50% and an inhibition at 30 µM [1, 5] of at least 50%. For the same compound, the inhibition at 3.3 µM (HepG2 (liver cancer)) was under 30%, the inhibition at 10 µM (HepG2 (liver cancer)) was at least 50% and the inhibition at 30 µM (HepG2 (liver cancer)) was at least 50%. It also gave an inhibition at 3.3 µM (SW480 (colon cancer)) of 30 to 50%, an inhibition at 10 µM (SW480 (colon cancer)) of at least 50% and an inhibition at 30 µM (SW480 (colon cancer)) of at least 50%. For the same compound, the inhibition at 3.3 µM [2] was at least 50%, the inhibition at 10 µM [2] was at least 50% and the inhibition at 30 µM [2] was at least 50%. It also gave an inhibition at 3.3 µM [3] of 30 to 50%, an inhibition at 10 µM [3] of 30 to 50% and an inhibition at 30 µM [3] of at least 50%. For the same compound, the inhibition at 3.3 µM [4] was under 30%, the inhibition at 10 µM [4] was at least 50% and the inhibition at 30 µM [4] was at least 50%. For the same compound, the inhibition at 3.3 µM (HeLa (cervical cancer)) was under 30%, the inhibition at 10 µM (HeLa (cervical cancer)) was at least 50% and the inhibition at 30 µM (HeLa (cervical cancer)) was at least 50%.

`CC1=C(CC(=O)O)c2c(Cl)cc(Cl)cc2/C1=C/c1ccc(Oc2ccc(F)cc2)cc1` [E33, (E)-2-(4,6-Dichloro-1-(4-(4-fluorophenoxy)benzylidene)-2-methyl-1H-inden-3-yl)acetic acid] gave an inhibition at 3.3 µM [1, 5] of under 30%, an inhibition at 10 µM [1, 5] of at least 50% and an inhibition at 30 µM [1, 5] of at least 50%. The inhibition at 3.3 µM (HepG2 (liver cancer)) was under 30%, the inhibition at 10 µM (HepG2 (liver cancer)) was at least 50% and the inhibition at 30 µM (HepG2 (liver cancer)) was at least 50%. For the same compound, the inhibition at 3.3 µM (SW480 (colon cancer)) was under 30%, the inhibition at 10 µM (SW480 (colon cancer)) was 30 to 50% and the inhibition at 30 µM (SW480 (colon cancer)) was at least 50%. The inhibition at 3.3 µM [2] was at least 50%, the inhibition at 10 µM [2] was at least 50% and the inhibition at 30 µM [2] was at least 50%. For the same compound, the inhibition at 3.3 µM [3] was at least 50%, the inhibition at 10 µM [3] was at least 50% and the inhibition at 30 µM [3] was at least 50%. For the same compound, the inhibition at 3.3 µM [4] was under 30%, the inhibition at 10 µM [4] was at least 50% and the inhibition at 30 µM [4] was at least 50%. The inhibition at 3.3 µM (HeLa (cervical cancer)) was 30 to 50%, the inhibition at 10 µM (HeLa (cervical cancer)) was at least 50% and the inhibition at 30 µM (HeLa (cervical cancer)) was at least 50%.

With `CC1=C(CC(=O)O)c2cc(Cl)ccc2/C1=C\c1ccc(COc2ccc(C(F)(F)F)cc2)cc1` [B58, (Z)-2-(5-Chloro-2-methyl-1-(4-((4-(trifluoromethyl)phenoxy)methyl)-benzylidene)-1H-inden-3-yl)acetic acid] the inhibition at 3.3 µM [1, 5] was under 30%, the inhibition at 10 µM [1, 5] was under 30% and the inhibition at 30 µM ([1]; read-out: Antiproliferative activity in cancerous cells, MDA-MB-231) was 30 to 50%. For the same compound, the inhibition at 3.3 µM (HepG2 (liver cancer)) was under 30%, the inhibition at 10 µM (HepG2 (liver cancer)) was at least 50% and the inhibition at 3.3 µM (SW480 (colon cancer)) was under 30%. For the same compound, the inhibition at 10 µM (SW480 (colon cancer)) was 30 to 50%, the inhibition at 3.3 µM [2] was at least 50% and the inhibition at 10 µM [2] was at least 50%. It also gave an inhibition at 3.3 µM [3] of 30 to 50%, an inhibition at 10 µM [3] of 30 to 50% and an inhibition at 3.3 µM [4] of under 30%. It also gave an inhibition at 10 µM [4] of 30 to 50%, an inhibition at 3.3 µM (HeLa (cervical cancer)) of 30 to 50% and an inhibition at 10 µM (HeLa (cervical cancer)) of at least 50%.
